US20230405084A1, “USE OF PHOSPHATIDYLSERINE IN PREPARATION OF DRUG FOR TREATING INFLAMMATORY BOWEL DISEASE” (JIANGSU TARGET BIOMEDICAL RESEARCH INSTITUTE CO., LTD., priority 2020, published 2023)
Numbering of substitutions follows the chain as printed.

Tests used:
[1] = biological target: T1, Annexin A5-EGFP (wild-type Annexin A5 fused to EGFP) (Homo sapiens, UniProt P08758); assay: MST analysis of protein binding ability to PS (Annexin A5-EGFP); conditions: fitted binding curve (Fnorm), in the presence of Ca^2+, protein fixed, gradient dilution of PS, 5 min at room temperature
T1 construct: E. coli BL21(DE3), pET-28a/kanamycin vector
T1 sequence (P08758 1-320): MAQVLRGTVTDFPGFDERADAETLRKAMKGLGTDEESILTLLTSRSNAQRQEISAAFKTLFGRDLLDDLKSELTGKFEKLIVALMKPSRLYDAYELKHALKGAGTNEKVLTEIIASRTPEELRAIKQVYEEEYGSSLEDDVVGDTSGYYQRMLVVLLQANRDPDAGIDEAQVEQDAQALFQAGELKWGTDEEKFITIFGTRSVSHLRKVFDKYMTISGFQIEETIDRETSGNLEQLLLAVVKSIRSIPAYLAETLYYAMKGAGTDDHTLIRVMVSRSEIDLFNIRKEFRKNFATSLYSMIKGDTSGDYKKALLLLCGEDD
Method: (§1) 3.2.9 MST Analysis of Protein Binding Ability to PS
(§2) MST is based on the phenomenon of thermophoresis of biomolecules in capillaries, resulting in changes in the properties of biomolecules, which are manifested in changes in the fluorescence distribution of the reaction system, and the fluorescence changes reflect the affinity of biomolecular interactions.
(§3) The MST experiment was conducted as follows.
(§4) (1) Non-fluorescent ligand preparation: 20 μL of the highest concentration unmarked PS molecules was prepared. 16 PCR tubes were labeled. 10 μL of buffer was added to each of 15 PCR tubes. 10 μL from PCR tube #1 was transferred to PCR tube #2 and mixed thoroughly. 10 μL from PCR tube #2 was transferred to PCR tube #3 and mixed thoroughly. Repeat this step in all sample tubes. Finally, 10 μL from PCR tube #16 was taken out and discard.
(§5) (2) Fluorescent ligand preparation: The fluorescent ligand was diluted to 2 times the concentration to be tested, and 10 μL was added respectively to PCR tubes 1-16 in sequence using a clean pipette tip, starting from the low concentration PCR tube to the highest concentration PCR tube.
(§6) (3) Incubation: The reaction solutions of the above tubes were mixed thoroughly and incubated for 5 min at room temperature away from light. […]

[2] = biological target: T2, Annexin A5m-EGFP (Annexin A5 variant Annexin A5m, R25A/K29S/R63S/D68A/E72Q/D144N/E228A/D303N, fused to EGFP) (Homo sapiens, UniProt P08758, D144N/D303N/D68A/E228A/E72Q/K29S/R25A/R63S); assay: MST analysis of protein binding ability to PS (Annexin A5m-EGFP); conditions: in the presence of Ca^2+, failed to be fitted into a binding curve, protein fixed, gradient dilution of PS, 5 min at room temperature
T2 construct: pET-28a, E. coli BL21(DE3)
T2 sequence (P08758 1-320 R25A/K29S/R63S/D68A/E72Q/D144N/E228A/D303N): T1 sequence (P08758 1-320) with R25A, K29S, R63S, D68A, E72Q, D144N, E228A, D303N
Method: as §1, §2, §3, §4, §5, §6

Kd [1]: 13.8 µM | Kd value [2]: no Kd value
Substance: phosphatidylserine [PS]
